Data on six molecules can be found in patent US12649748B2, “Wee1 inhibitor and use thereof” (JIANGSU TASLY DIYI PHARMACEUTICAL CO., LTD., priority 2021, dated 2026).

The subject of one data set is H1299 cells. The data set can be described thus: Anti-proliferative effect by Cell Titer-Glo, H1299. To be noted: Homo sapiens, NCI-H1299, 72 h, read-out: IC50 measured value H1299. In kind it is cell-based. Summed up: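 Cells exposed to 9-point serial dilutions (duplicates, 0.2% DMSO final) for 3 days at 37 °C, 5% CO2. Viability by CellTiter-Glo luminescence; inhibition normalised to untreated-cell and medium controls, IC50 from variable-slope log(inhibitor)–response fit.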

The nature of data set [1]: Plasma protein binding (PPB), rat. In kind it is in vitro ADME. To be noted: 5 h dialysis, read-out: Plasma protein binding rate (%) Rat (converted). The method, then:
Sample preparation: The compound was dissolved in DMSO to a stock solution of 10 mM, then the compound was diluted with PBS to a secondary stock solution of 0.02 mM, and then the above 0.02 mM was diluted to 1 μM using blank plasma, which was the sample to be incubated.
Dialysis set-up preparation: 400 μL of blank PBS was first added to the white wells of the equilibrated dialysis plate and 200 μL of the configured plasma sample was added to the red wells, and the dialysis plate was sealed with a sealing film.
Recovery plate preparation: Two 96-well deep-well plates, labelled T0 and T5, were prepared and all plasma samples were added at n=2. 300 μL of acetonitrile (Verapamil-HCl, 4 ng/mL) was added directly to the TO plate, followed by 50 μL of blank PBS mix well for 5 min and left to stand in a 4° C. refrigerator until the end of the incubation.
Experimental Operation: The dialysis device and the T5 plate were incubated together for 5 h in a microplate thermostatic shaker (37° C., using 300 rpm or minimum speed). At the end of the incubation, 300 μL of acetonitrile (Verapamil-HCl, 4 ng/mL) was added and 50 μL of PBS solution was added. At the end of the dialysis incubation, a new 96-well deep well plate was taken. Add 50 μL of plasma well sample to the corresponding position of the 96-well plate, 300 μL of acetonitrile and 50 μL of blank PBS; take 50 μL of buffer well sample to the corresponding position of the 96-well plate, then add 300 μL of acetonitrile and 50 μL of blank plasma. Add 300 μL of acetonitrile (Verapamil-HCl, 4 ng/mL) to the plasma-containing wells of the T5 plate, and then 50 μL of PBS solution was added. Shake for 5 min to fully precipitate the proteins and centrifuge at 20,000 g for 10 min at 4° C. Add 200 μL of supernatant to 200 μL of pure water, mix well and perform LC-MS/MS analysis.
2. Data Processing and Parameter Calculation Plasma protein binding rate=[(Rpe−Rb)/Rpe]×100% Recovery=[(Rpe+Rb)/R5h]×100% Stability=(R5/R0)×100% where • Rpe=ratio of plasma-side testing sample peak area to internal standard • Rb=ratio of buffer side testing sample peak area to internal standard • R5=ratio of incubator stability sample peak area to internal standard • R0=ratio of refrigerator stability sample peak area to internal standard 3.

The target in another data set is T1, CYP2C8 (Homo sapiens, UniProt P10632).
T1 sequence (P10632 1-490): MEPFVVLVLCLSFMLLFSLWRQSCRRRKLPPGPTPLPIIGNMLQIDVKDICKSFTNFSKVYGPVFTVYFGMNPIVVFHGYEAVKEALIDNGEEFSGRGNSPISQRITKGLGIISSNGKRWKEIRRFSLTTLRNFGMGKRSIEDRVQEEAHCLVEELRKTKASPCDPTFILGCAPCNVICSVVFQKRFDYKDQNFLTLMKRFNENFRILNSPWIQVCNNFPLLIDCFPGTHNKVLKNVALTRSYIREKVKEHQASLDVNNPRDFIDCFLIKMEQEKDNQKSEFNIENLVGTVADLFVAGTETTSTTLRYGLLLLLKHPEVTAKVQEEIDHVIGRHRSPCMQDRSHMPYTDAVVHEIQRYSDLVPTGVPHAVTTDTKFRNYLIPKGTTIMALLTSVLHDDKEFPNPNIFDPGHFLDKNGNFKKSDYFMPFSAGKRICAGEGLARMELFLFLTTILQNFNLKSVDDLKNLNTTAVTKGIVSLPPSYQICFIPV
The data set can be described thus: Inhibition of cytochrome P450, CYP2C8. In kind it is in vitro ADME. The conditions noted are these: CYP2C8 enzyme, pH 7.4, probe DBOMF, read-out: CYP inhibition/% 2C8; for inhibition at 30 min, 1 µM: compound concentration 1 μM; for inhibition at 30 min, 10 µM: compound concentration 10 μM. As to the method: Enzymatic experiments were performed to quantify the inhibition of CYP450 enzyme activity of each isoform of CYP450 by small molecule inhibitors through fluorescence generated by the oxidation of the substrate by cytochrome P450. […] The Solution B composition used for the experiment was: 40 U/mL G6PDH (Sigma-aldrich, Cat #G6378). The substrate mix was 0.05× Solution A, 0.01× Solution B, 50 mM Potassium Phosphate, 0.01 mM BOMCC/0.01 mM EOMCC/0.001 mM DBOMF. […] The data were analyzed and processed using GraphPad Prism 6 software to obtain IC50 values.

Where [2] appears, read: H1299 cells, 3 days, Cell Titer-Glo.

Like-named read-outs stand apart in the source and are kept apart here.

On to `C=CCn1c(=O)c2cnc(Nc3ccc(N4CCN(C)CC4)cc3)nc2n1-c1cccc(C(C)(C)O)n1` [AZD-1775, reference compound], for which, in the data set on H1299 cells (setting [2]), the IC50 lay in the range of 100 to 1000 nM. Further, in data set [1], the fraction unbound at 5 h, 1 µM is 0.374.

As for `CN1CCN(c2ccc(Nc3ncc4cnn(-c5cccc(N=S(C)(C)=O)n5)c4n3)cc2)CC1` [Compound 1], the IC50 in the data set with H1299 cells was in the range of 1000 to 5000 nM. Besides, the fraction unbound at 5 h, 1 µM in data set [1] was 0.404. Besides, at CYP2C8, the inhibition at 30 min, 1 µM is -5.3% and the inhibition at 30 min, 10 µM worked out at 3.2%.

`CN1CCN(c2ccc(Nc3ncc4cnn(-c5cccc(C(C)(C)O)n5)c4n3)cc2)CC1` [Compound 2]: the IC50 with H1299 cells (setting [2]) is 1000 to 5000 nM. On CYP2C8, the inhibition at 30 min, 1 µM was -11% and the inhibition at 30 min, 10 µM was determined as 0.24%.

For `CS(C)(=O)=Nc1cccc(-n2ncc3cnc(Nc4ccc(N5CCOCC5)cc4)nc32)n1` [Compound 6], the IC50 in the data set with H1299 cells (setting [2]) was in the range of 100 to 1000 nM. For the same molecule, on CYP2C8, the inhibition at 30 min, 1 µM is -14.3% and the inhibition at 30 min, 10 µM was 20.9%.

For the molecule `Cc1cc(Nc2ncc3cnn(-c4cccc(N=S(C)(C)=O)n4)c3n2)ccc1N1CCC(N(C)C)CC1` [Compound 14], the IC50 with H1299 cells (setting [2]) lay within 100 to 1000 nM. The fraction unbound at 5 h, 1 µM in data set [1] is 0.246.

For the molecule `Cc1cc(Nc2ncc3cnn(-c4cccc(N=S(C)(C)=O)n4)c3n2)ccc1N1CCN(C)CC1` [Compound 16], the IC50 with H1299 cells (setting [2]) fell in the range of 100 to 1000 nM. Further, the fraction unbound at 5 h, 1 µM in data set [1] is 0.179.
